As a reminder, the IC50 is the concentration that gives 50% inhibition.

One assay concerns MLN4924 resistant HCT-116 cell clones. Kind of assay: Cell viability assay, 96 hours ATPlite, resistant clones. The assay is classed as cell-based. The settings on record: HCT-116 resistant clones, 96 hours ATPlite. The protocol: HCT-116 cells and resistant clones were treated with DMSO or various concentrations of FIG. 7A. bortezomib, FIG. 7B. doxorubicin or FIG. 7C. SN-38 for 96 hours and cell viability was assessed with ATPlite assay.
Cell line cultures were maintained using appropriate cell culture media as recommended by ATCC and as previously reported (Soucy et al., 2009, Milhollen et al., 2010). […] Cell viability assays completed using 96 hours ATPlite assay (PerkinElmer) as previously reported (Soucy et al., 2009).
On to `CCc1c2c(nc3ccc(O)cc13)-c1cc3c(c(=O)n1C2)COC(=O)[C@]3(O)CC` [SN-38], for which the “sensitivity of MLN4924 resistant clones to other chemotherapies” value (from here on “sensitivity of MLN4924 resistant clones”) is listed as “remained sensitive”. Consider `CC(C)C[C@H](NC(=O)[C@H](Cc1ccccc1)NC(=O)c1cnccn1)B(O)O` [bortezomib], for which the “sensitivity of MLN4924 resistant clones” value was “remained sensitive”. For the compound `COc1cccc2c1C(=O)c1c(O)c3c(c(O)c1C2=O)C[C@@](O)(C(=O)CO)C[C@@H]3O[C@H]1C[C@H](N)[C@H](O)[C@H](C)O1` [doxorubicin], the “sensitivity of MLN4924 resistant clones” value is “remained sensitive”.

Another assay has as its system HCT-116 WT, HCT-116.1 A171T and HCT-116.4 C324Y cells. Kind of assay: Drug efflux inhibitor co-incubation, ATPlite viability assay. The assay is classed as cell-based. Particulars: co-treatment with MLN4924, 96 hours. As for the experimental part: Treatment of cells with efflux inhibitors. FIG. 8A. […] Co-incubation studies were performed with various inhibitors of drug efflux at their highest non toxic concentration.
Diypridamole (Sigma), MK571 (Tocris), GF918, K0143 (Tocris) and LY5979 were obtained from commercial sources indicated.
Background: Cellular ATP, detected with luciferase, serves as a proxy for viable cell number.
`COc1ccc2c3c([nH]c2c1)[C@H](CC(C)C)N1C(=O)[C@H](CCC(=O)OC(C)(C)C)NC(=O)[C@@H]1C3` [Compound K0143]: the “sensitization of cells to MLN4924 by Pgp, BCRP and MRP2 inhibitors” value (“sensitization … BCRP and MRP2 inhibitors” below) was “did not sensitize”. Consider `COc1cc2c(cc1OC)CN(CCc1ccc(NC(=O)c3cccc4c(=O)c5cccc(OC)c5[nH]c34)cc1)CC2` [GF120918], for which the “sensitization … BCRP and MRP2 inhibitors” value is recorded as “did not sensitize”.

On to `CN(C)C(=O)CCSC(SCCC(=O)O)c1cccc(/C=C/c2ccc3ccc(Cl)cc3n2)c1` (stereo not drawn) [MK519], for which the “sensitization … BCRP and MRP2 inhibitors” value is on record as “did not sensitize”.

In the next assay the target is T1, wild type UBA3 (NAE) (Homo sapiens, UniProt Q8TBC4).
T1 construct: His; made in house; host or cells: E. coli Rosetta (DE3), co-expression
T1 sequence (Q8TBC4 whole entry): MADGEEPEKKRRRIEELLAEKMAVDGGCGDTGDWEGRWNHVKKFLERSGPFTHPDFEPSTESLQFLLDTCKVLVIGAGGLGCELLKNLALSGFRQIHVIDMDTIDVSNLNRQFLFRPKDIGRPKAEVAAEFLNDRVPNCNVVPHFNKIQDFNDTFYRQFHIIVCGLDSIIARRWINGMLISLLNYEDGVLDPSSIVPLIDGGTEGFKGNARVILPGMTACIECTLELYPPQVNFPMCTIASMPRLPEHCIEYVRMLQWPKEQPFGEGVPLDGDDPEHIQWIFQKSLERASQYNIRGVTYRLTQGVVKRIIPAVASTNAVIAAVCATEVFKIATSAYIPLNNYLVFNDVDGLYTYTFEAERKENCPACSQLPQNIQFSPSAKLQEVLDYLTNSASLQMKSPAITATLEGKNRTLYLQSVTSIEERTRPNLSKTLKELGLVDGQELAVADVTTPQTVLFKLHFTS
T1 sequence (Q13564 whole entry partner): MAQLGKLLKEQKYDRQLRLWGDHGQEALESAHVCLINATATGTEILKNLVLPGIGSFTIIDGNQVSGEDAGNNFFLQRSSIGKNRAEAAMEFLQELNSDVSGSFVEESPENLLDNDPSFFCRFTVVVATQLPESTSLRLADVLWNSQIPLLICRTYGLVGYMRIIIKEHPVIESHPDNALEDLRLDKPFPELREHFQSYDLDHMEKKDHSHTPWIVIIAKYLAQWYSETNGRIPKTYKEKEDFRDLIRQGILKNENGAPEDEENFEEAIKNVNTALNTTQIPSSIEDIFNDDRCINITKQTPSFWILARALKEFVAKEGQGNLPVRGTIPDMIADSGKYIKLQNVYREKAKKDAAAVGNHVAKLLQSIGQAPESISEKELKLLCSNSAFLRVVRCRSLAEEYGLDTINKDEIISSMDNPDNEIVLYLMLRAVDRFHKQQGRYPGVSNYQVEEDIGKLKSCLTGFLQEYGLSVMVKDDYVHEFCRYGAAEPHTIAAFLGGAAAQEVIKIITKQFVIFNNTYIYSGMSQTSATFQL
T1 sequence (Q15843 1-76 partner limits assumed): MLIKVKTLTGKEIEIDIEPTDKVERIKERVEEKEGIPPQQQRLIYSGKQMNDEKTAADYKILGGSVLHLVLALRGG
Kind of assay: NAE HTRF assay, IC50 at KM for ATP (20 μM). Type of assay: biochemical. The settings on record: read-out: NAE WT IC50. As for the experimental part: (§1) The enzyme reversibility assay was run in the FLAG-NEDD8-GST-UBC12 HTRF transthiolation assay described previously (Soucy et al., 2009, Brownell et al., 2010). Final concentrations of each enzyme after dilution were 10 pM WT NAEβ, 12.5 pM A171T NAEβ, 30 pM N209K NAEβ, and 33 pM E204K/G201V NAEβ.
(§2) IC50 measurements were performed in the HTRF assay described in Example 6. Assays for each enzyme were performed at their KM for ATP (20 μM for wild type, 120 μM for the A171T mutant).
(§3) An NAE enzymatic reaction totals 50 μL and contains 50 mM HEPES (pH 7.5), 0.05% BSA, 5 mM MgCl2, 20 μM ATP, 250 μM GSH, 0.01 μM UBC12-GST, 0.075 NEDD8-Flag and 0.28 nM recombinant human NAE enzyme. The enzymatic reaction mixture, with and without compound inhibitor, is incubated at 24° C. for 90 minutes in a 384-well plate before termination with 25 μL of Stop/Detection buffer (0.1M HEPES pH 7.5, 0.05% Tween20, 20 mM EDTA, 410 mM KF, 0.53 nM Europium-Cryptate labeled monoclonal anti-FLAG M2 antibody (CisBio International) and 8.125 μg/mL PHYCOLINK goat anti-GST allophycocyanin (XL-APC) antibody (Prozyme)). After incubation for 3 hours at 24° C., quantification of the FRET is performed on the Analyst™ HT 96.384 (Molecular Devices).
In general terms: TR-FRET usually uses a lanthanide donor and a delayed reading to cut background.
As to `NS(=O)(=O)OCC1OC(n2cnc3c(NCc4ccccc4)ncnc32)C(O)C1O` (stereo not drawn) [Compound I-6], the IC50 was 0.73 nM. `CNc1ncnc2c1ccn2C1CC(O)C(COS(N)(=O)=O)C1` (stereo not drawn) [Compound I-40]: the IC50 came out at 72 nM. As for `Cc1ncnc2c1ccn2[C@@H]1C[C@@H](COS(N)(=O)=O)[C@@H](O)C1` [Compound I-46], the half-inhibitory concentration (IC50) is 37 nM.

For the next assay, the target named is T2, UBA3 variant with A171T mutation (NAE) (Homo sapiens, UniProt Q8TBC4, A171T).
T2 construct: His; made in house; host or cells: E. coli Rosetta (DE3), co-expression
T2 sequence (Q8TBC4 whole entry A171T): as the sequence (Q8TBC4 whole entry) above, with A171T counted along it
T2 sequence (Q13564 whole entry partner): as the sequence (Q13564 whole entry partner) above
T2 sequence (Q15843 1-76 partner limits assumed): as the sequence (Q15843 1-76 partner limits assumed) above
The assay can be described thus: NAE HTRF assay, IC50 at KM for ATP (120 μM). Type of assay: biochemical. The settings on record: UBA3 A171T mutant; HTRF assay at KM for ATP, 120 μM. The protocol:
as §1, §2, §3
For the compound `NS(=O)(=O)OCC1OC(n2cnc3c(NCc4ccccc4)ncnc32)C(O)C1O` (stereo not drawn) [Compound I-6], half-maximal inhibition (IC50) required 84 nM. Compound `CNc1ncnc2c1ccn2C1CC(O)C(COS(N)(=O)=O)C1` (stereo not drawn) [Compound I-40] registered an IC50 of 630 nM. With `Cc1ncnc2c1ccn2[C@@H]1C[C@@H](COS(N)(=O)=O)[C@@H](O)C1` [Compound I-46], the IC50 is 250 nM.

The same assay, now with this note: ratio of IC50 A171T mutant to IC50 wild type.
For the compound `NS(=O)(=O)OCC1OC(n2cnc3c(NCc4ccccc4)ncnc32)C(O)C1O` (stereo not drawn) [Compound I-6], the A171T/WT is recorded as 115.

For `CNc1ncnc2c1ccn2C1CC(O)C(COS(N)(=O)=O)C1` (stereo not drawn) [Compound I-40], the A171T/WT is reported as 9. For the compound `Cc1ncnc2c1ccn2[C@@H]1C[C@@H](COS(N)(=O)=O)[C@@H](O)C1` [Compound I-46], the A171T/WT is 7.

The values above are taken from patent US20170107579A1, “E1 ENZYME MUTANTS AND USES THEREOF” (Millennium Pharmaceuticals, Inc., priority 2011, published 2017).
